Experimental data from ChEMBL document CHEMBL1148664, “Synthesis and biological evaluation of rhodanine derivatives as PRL-3 inhibitors” (Bioorg Med Chem Lett, 2006).
Active and inactive are the calls of the source. The calls are words filed in the database; no cut-off is given here.

Experiments:
[1] = target: T1, Protein tyrosine phosphatase type IVA 3 (Homo sapiens, UniProt O75365); assay: Inhibition of human recombinant PRL-3 up to 50 uM
B16-F10 = assay: Ability to reduce the invasiveness of tumor in B16F10 cells; type: functional, cell-based; settings: Mus musculus
[2] = target: T1, Protein tyrosine phosphatase type IVA 3; assay: Inhibition of human recombinant PRL-3

T1 sequence (O75365 whole entry): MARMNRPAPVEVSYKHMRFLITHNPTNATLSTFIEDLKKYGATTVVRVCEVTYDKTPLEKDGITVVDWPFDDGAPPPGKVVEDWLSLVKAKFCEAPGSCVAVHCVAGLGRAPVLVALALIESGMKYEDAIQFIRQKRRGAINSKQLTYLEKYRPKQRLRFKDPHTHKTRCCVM

Compound	inhibition [1]	further results
O=C1NC(=S)S/C1=C\c1cc2ccccc2cc1OCc1c(F)cccc1Cl		Activity (B16-F10): Active
N=C(N)c1ccc(OCCCCCOc2ccc(C(=N)N)cc2)cc1 [PENTAMIDINE]		IC50 [2]: 53.6 µM
O=C1NC(=S)S/C1=C\c1ccccc1OCc1ccccc1	inactive	
CS(=O)(=O)Oc1ccc(Br)cc1/C=C1\SC(=S)NC1=O	inactive	
O=C1NC(=S)S/C1=C\c1cc(Br)ccc1O		IC50 [2]: 9.5 µM
CN1C(=O)/C(=C/c2cc(Br)ccc2OCc2ccccc2)SC1=S	inactive	
O=C1NC(=S)S/C1=C\c1cc(Br)ccc1OCc1ccccc1Br		Activity (B16-F10): Active

Now from value to compound, other results behind:

inhibition [1]	Compound	further results
inactive	O=C1NC(=S)S/C1=C\c1cc(Br)ccc1OCc1cccnc1	
inactive	O=Cc1cc(Br)ccc1O	
inactive	O=C1NC(=O)/C(=C/c2cc(Br)ccc2OCc2ccccc2)S1	
